Results as given in the supplement of paper PMC10627819.

Legend:
S. aureus Newman [1] = test: fitness (endpoint OD595 vs no drug) (fraction); higher = more growth
Summary of the method: (§1)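 Fitness was defined as the optical density at the transition into stationary phase relative to the robust mean of no-drug control wells. Values were capped at 1. Cultures were started at OD595 0.01 in 384-well plates (30 µl, or 55 µl for S. pneumoniae) in TSB, LB Lennox or CY at 37 °C. OD595 was recorded every 30 min over 14 h, with the first reading subtracted as background.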

S. pneumoniae D39V [2] = test: as above
Summary of the method: as §1

B. subtilis 168 [3] = test: Bliss interaction score (quartile over a dose matrix) (fitness difference); higher = more antagonism (negative = synergy)
Summary of the method: (§2)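 Values were capped at 1 after dividing OD595 at stationary-phase entry by the plate's robust no-drug mean. This ratio is fitness, and single-drug fitness was inferred from the combination data. The Bliss score is observed minus product-expected fitness, given as quartiles over technical, biological and donor/recipient replicates.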

S. aureus DSM 20231 = test: as above
Summary of the method: as §2

S. aureus Newman [4] = test: as above
Summary of the method: as §2

S. pneumoniae D39V [5] = test: as above
Summary of the method: as §2

B. subtilis 168 [6] = test: fitness (endpoint OD595 vs no drug) (fraction); higher = more growth
Summary of the method: as §1
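For Bliss interaction score (quartile over a dose matrix) in this document: first quartile when negative (synergy) and third quartile when positive (antagonism).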

CCCCCCCCCC(=O)N[C@@H](Cc1c[nH]c2ccccc12)C(=O)N[C@H](CC(N)=O)C(=O)N[C@@H](CC(=O)O)C(=O)N[C@@H]1C(=O)NCC(=O)N[C@@H](CCCN)C(=O)N[C@@H](CC(=O)O)C(=O)N[C@H](C)C(=O)N[C@@H](CC(=O)O)C(=O)NCC(=O)N[C@H](CO)C(=O)N[C@@H]([C@H](C)CC(=O)O)C(=O)N[C@@H](CC(=O)c2ccccc2N)C(=O)O[C@@H]1C [Daptomycin] + C/C(=C\C(=O)OCCCCCCCCC(=O)O)C[C@@H]1OC[C@H](C[C@@H]2O[C@H]2[C@@H](C)[C@H](C)O)[C@@H](O)[C@H]1O [Pseudomonic acid]
fitness, S. aureus Newman [1], one replicate
Conditions	first compound 0.125 µg/mL	first compound 0.25 µg/mL	first compound 0.5 µg/mL
partner 0.0313 µg/mL	0.0598	0.0545	0.0362
partner 0.0625 µg/mL	0.0219	0.0175	0.0123
partner 0.125 µg/mL	0.0444	0.0303	0.0061

fitness, S. pneumoniae D39V [2]
Conditions	first compound 1 µg/mL	first compound 2 µg/mL	first compound 4 µg/mL
partner 0.03 µg/mL	0.895	0.904	0.893
partner 0.06 µg/mL	0.679	0.765	0.736
partner 0.12 µg/mL	0.324	0.407	0.408

Conditions	Bliss interaction score
B. subtilis 168 [3]	0.058
S. aureus DSM 20231	-0.0135
S. aureus Newman [4]	-0.0312
S. pneumoniae D39V [5]	-0.101

CCCCCCCCCC(=O)N[C@@H](Cc1c[nH]c2ccccc12)C(=O)N[C@H](CC(N)=O)C(=O)N[C@@H](CC(=O)O)C(=O)N[C@@H]1C(=O)NCC(=O)N[C@@H](CCCN)C(=O)N[C@@H](CC(=O)O)C(=O)N[C@H](C)C(=O)N[C@@H](CC(=O)O)C(=O)NCC(=O)N[C@H](CO)C(=O)N[C@@H]([C@H](C)CC(=O)O)C(=O)N[C@@H](CC(=O)c2ccccc2N)C(=O)O[C@@H]1C [Daptomycin] + CC(C1CCC(C(O1)OC2C(CC(C(C2O)OC3C(C(C(CO3)(C)O)NC)O)N)N)N)NC [Gentamicin]
main component drawn
Conditions	fitness
B. subtilis 168 [6], first compound 0.125 µg/mL, partner 0.0625 µg/mL	0.905
B. subtilis 168 [6], first compound 0.125 µg/mL, partner 0.25 µg/mL	0.0486
B. subtilis 168 [6], first compound 0.25 µg/mL, partner 0.0625 µg/mL	0.906
S. aureus Newman [1], first compound 0.125 µg/mL, partner 0.5 µg/mL	0.926
S. aureus Newman [1], first compound 0.125 µg/mL, partner 1 µg/mL	≥ 1
S. aureus Newman [1], first compound 0.125 µg/mL, partner 2 µg/mL	≥ 1
S. aureus Newman [1], first compound 0.25 µg/mL, partner 0.5 µg/mL	0.947
S. aureus Newman [1], first compound 0.25 µg/mL, partner 1 µg/mL	≥ 1
S. aureus Newman [1], first compound 0.25 µg/mL, partner 2 µg/mL	≥ 1
S. aureus Newman [1], first compound 0.5 µg/mL, partner 0.5 µg/mL	0.949
S. aureus Newman [1], first compound 0.5 µg/mL, partner 1 µg/mL	0.993
S. aureus Newman [1], first compound 0.5 µg/mL, partner 2 µg/mL	≥ 1
S. pneumoniae D39V [2], first compound 1 µg/mL, partner 2 µg/mL	0.952
S. pneumoniae D39V [2], first compound 1 µg/mL, partner 4 µg/mL	0.917
S. pneumoniae D39V [2], first compound 1 µg/mL, partner 8 µg/mL	0.868
S. pneumoniae D39V [2], first compound 2 µg/mL, partner 2 µg/mL	0.956
S. pneumoniae D39V [2], first compound 2 µg/mL, partner 4 µg/mL	0.905
S. pneumoniae D39V [2], first compound 2 µg/mL, partner 8 µg/mL	0.877
S. pneumoniae D39V [2], first compound 4 µg/mL, partner 8 µg/mL	0.724

fitness, one replicate, main component drawn
Conditions	partner 0.0625 µg/mL	partner 0.125 µg/mL	partner 0.25 µg/mL	partner 0.375 µg/mL	partner 0.75 µg/mL	partner 1.5 µg/mL
B. subtilis 168 [6], first compound 1 µg/mL	0.718	0.499	0.0176	–	–	–
S. aureus Newman [1], first compound 0.125 µg/mL	–	–	–	≥ 1	≥ 1	0.656
S. aureus Newman [1], first compound 0.25 µg/mL	–	–	–	≥ 1	≥ 1	0.153
S. aureus Newman [1], first compound 0.5 µg/mL	–	–	–	≥ 1	≥ 1	0.237

main component drawn
Conditions	Bliss interaction score
B. subtilis 168 [3]	0.136
S. aureus DSM 20231	0.0663
S. aureus Newman [4]	-0.0263
S. pneumoniae D39V [5]	0.0772

CCCCCCCCCC(=O)N[C@@H](Cc1c[nH]c2ccccc12)C(=O)N[C@H](CC(N)=O)C(=O)N[C@@H](CC(=O)O)C(=O)N[C@@H]1C(=O)NCC(=O)N[C@@H](CCCN)C(=O)N[C@@H](CC(=O)O)C(=O)N[C@H](C)C(=O)N[C@@H](CC(=O)O)C(=O)NCC(=O)N[C@H](CO)C(=O)N[C@@H]([C@H](C)CC(=O)O)C(=O)N[C@@H](CC(=O)c2ccccc2N)C(=O)O[C@@H]1C [Daptomycin] + CN(C)c1cc(NC(=O)CNC(C)(C)C)c(O)c2c1C[C@H]1C[C@H]3[C@H](N(C)C)C(O)=C(C(N)=O)C(=O)[C@@]3(O)C(O)=C1C2=O [Tigecycline]
fitness
Conditions	first compound 0.125 µg/mL	first compound 0.25 µg/mL	first compound 0.5 µg/mL	first compound 1 µg/mL	first compound 2 µg/mL	first compound 4 µg/mL
B. subtilis 168 [6], partner 0.039 µg/mL	0.929	0.926	0.869	–	–	–
B. subtilis 168 [6], partner 0.078 µg/mL	0.89	0.892	0.867	–	–	–
B. subtilis 168 [6], partner 0.156 µg/mL	0.904	0.905	0.885	–	–	–
S. aureus Newman [1], partner 0.039 µg/mL	0.932	0.984	0.917	–	–	–
S. aureus Newman [1], partner 0.078 µg/mL	≥ 1	0.988	0.987	–	–	–
S. aureus Newman [1], partner 0.156 µg/mL	≥ 1	0.997	0.991	–	–	–
S. pneumoniae D39V [2], partner 0.325 µg/mL	–	–	–	0.973	0.993	0.976
S. pneumoniae D39V [2], partner 0.65 µg/mL	–	–	–	0.959	0.945	0.963
S. pneumoniae D39V [2], partner 1.3 µg/mL	–	–	–	0.963	0.956	0.972
S. pneumoniae D39V [2], partner 2.6 µg/mL	–	–	–	0.911	0.903	0.956

fitness, B. subtilis 168 [6], one replicate
Conditions	partner 0.039 µg/mL	partner 0.078 µg/mL	partner 0.125 µg/mL	partner 0.156 µg/mL	partner 0.25 µg/mL	partner 0.5 µg/mL
first compound 0.125 µg/mL	–	–	0.985	–	0.902	0.899
first compound 0.25 µg/mL	–	–	0.974	–	0.926	0.981
first compound 0.5 µg/mL	–	–	0.955	–	0.944	0.989
first compound 1 µg/mL	0.759	0.732	–	0.731	–	–

Conditions	Bliss interaction score
B. subtilis 168 [3]	-0.0609
S. aureus DSM 20231	0.0697
S. aureus Newman [4]	-0.037
S. pneumoniae D39V [5]	0.0991
